The target in assay [1] is T1, T4 DNA ligase (Enterobacteria phage T4, UniProt P00970).
T1 sequence (P00970 1-487): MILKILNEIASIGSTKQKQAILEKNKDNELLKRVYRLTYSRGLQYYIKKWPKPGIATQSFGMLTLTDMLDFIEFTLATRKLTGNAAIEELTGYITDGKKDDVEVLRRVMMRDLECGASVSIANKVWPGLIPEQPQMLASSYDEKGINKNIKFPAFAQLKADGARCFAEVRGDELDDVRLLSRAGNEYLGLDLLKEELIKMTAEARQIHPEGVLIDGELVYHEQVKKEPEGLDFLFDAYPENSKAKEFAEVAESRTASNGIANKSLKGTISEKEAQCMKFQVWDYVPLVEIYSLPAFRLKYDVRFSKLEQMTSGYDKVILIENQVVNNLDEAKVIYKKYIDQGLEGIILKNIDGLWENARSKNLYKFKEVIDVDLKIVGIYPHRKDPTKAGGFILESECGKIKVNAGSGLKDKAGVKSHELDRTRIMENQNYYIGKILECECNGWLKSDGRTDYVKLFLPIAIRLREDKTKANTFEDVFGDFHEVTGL
In kind it is biochemical. Further details: purchased NEB (New England Biolabs), Ipswich, Mass. #M0202. As for the experimental part:
(§1) All were tested side-by-side using two ligation test systems which were: (a) cloning of a 500 bp amplicon made by Taq DNA polymerase into a T-tailed vector; and (b) recircularization of an AhdI-linearized plasmid. Both ligation test systems used DNA with single-base overhangs.
(§2) The reaction mixtures contained DNA at 50-100 ng and 1,2-PrD at different concentrations. 1 μl of regular concentration (NEB, Ipswich, Mass., #M0202; 400 units) or 1 μl of high concentration T4 DNA ligase (NEB, Ipswich, Mass., #M0202; 2000 units) was then added to a final volume of 21 μl in 1×T4 DNA Ligase Buffer (NEB, Ipwich, Mass., #B0202) or 1× Quick Ligase™ Buffer (NEB, Ipswich, Mass., #B2200).
(§3) A standard assay uses 100 ng DNA, 1 μl of T4 DNA ligase, 21 μl 1×T4 DNA ligase buffer and varying amounts of enhancer.
(§4) Ligation reactions were incubated for 10 min at room temperature (25° C.) unless otherwise stated, then placed on ice for 2 min. In some experiments the ligase was heat-killed by incubation at 65° C. for 20 min. The ligation reactions were analyzed by 1% agarose gel electrophoresis to identify DNA species and determine the efficiency of […].
(§5) A volume of 2 μl from each ligation reaction was incubated with 50 μl of chemically competent (NEB, Ipswich, Mass., #C2987I) or electrocompetent (NEB, Ipswich, Mass., #C2989K) DH5 alpha E. coli cells.
(§6) For chemically competent cell transformations, the cell-DNA mixture was incubated on ice for 30 min, heat-shocked at 42° C. for 30 sec, then returned to ice for 5 min. A volume of 950 μl SOC medium (2% vegetable peptone or Tryptone, 0.5% yeast extract, 10 mM NaCl, 2.5 mM KCl, 10 mM MgCl2, 10 mM MgSO4 and 20 mM glucose) was added to the cell-DNA mixture, followed by a one hr 37° C. outgrowth period with agitation. A volume of 25-50 μl of appropriately diluted cells in SOC was spread onto Rich Agar plates (composition per liter: 10 g soy peptone, 5 g yeast extract, 10 g NaCl, 1 g MgCl2-6H2O, 1 g dextrose, 15 grams agar) supplemented with 100 μg/ml ampicillin. Plates were inverted and incubated for 16 hrs at 37° C., followed by quantification of total colony numbers.

In assay [2] the target is T1, T4 DNA ligase. Kind of assay: Cloning of a 500 bp amplicon made by Taq DNA polymerase into a T-tailed vector (ligation test system a). Further details: purchased NEB (New England Biolabs), Ipswich, Mass. #M0202. The conditions noted are these: no addition = 1-fold, single-base overhangs. In kind it is biochemical. On the procedure:
as §1, §2, §3, §4, §5, §6

The next assay deals with ligase. The following applies: Xiao et al. 2007; nick junctions in double-stranded DNA; cited from earlier work.
For assay [3], the target named is T1, T4 DNA ligase. The conditions noted are these: Pheiffer et al. 1983; cited from earlier work.
The mark [4] stands for this setting: enhancer at 12%, no addition = 1-fold, single-base overhangs.

Read-outs that look alike come from different tables or passages of the source.

With `OCCCO` [1,3-PrD, 1,3-propanediol], the “Recircularization Enhancement” value at T4 DNA ligase [1] (setting [4]) is listed as 9 fold. In addition, on T4 DNA ligase [2] (enhancer at 12%), the “Cloning Enhancement” value is 7-fold. As for `OCC(O)CO` [Glycerol], the “Recircularization Enhancement” value on T4 DNA ligase [1] (setting [4]) is given as 5-fold. Also, the “Effect on efficiency of ligation” value in the assay with ligase is on record as “inhibited the efficiency of the ligation reaction at nick junctions in double-stranded DNA”. Besides, the “Cloning Enhancement” value at T4 DNA ligase [2] (enhancer at 12%) is given as 4-fold. `CC(C)O` [Isopropanol]: the “Recircularization Enhancement” value on T4 DNA ligase [1] (setting [4]) is 10-fold. In addition, at T4 DNA ligase [2] (enhancer at 12%), the “Cloning Enhancement” value is reported as 16-fold. On to `OCCO` [Ethylene glycol], for which the “Recircularization Enhancement” value on T4 DNA ligase [1] is 8-fold. Also, the “Cloning Enhancement” value on T4 DNA ligase [2] (enhancer at 12%) is listed as 10-fold.

Consider `C[S+](C)[O-]` [DMSO, dimethyl sulfoxide], for which the “Recircularization Enhancement” value on T4 DNA ligase [1] (enhancer at 6%, no addition = 1-fold, single-base overhangs) was 9-fold. For the same compound, the “Effect on efficiency of ligation” value in the assay on ligase is listed as “inhibited the efficiency of the ligation reaction at nick junctions in double-stranded DNA”. Besides, the “Cloning Enhancement” value at T4 DNA ligase [2] (enhancer at 6%) is 12-fold. Regarding PEG 200, the “Effect on blunt-end ligation” value at T4 DNA ligase [3] is recorded as “little effect on ligation”. `NC=O` [formamide, reference compound]: the “Effect on efficiency of ligation” value in the assay with ligase is “inhibited the efficiency of the ligation reaction at nick junctions in double-stranded DNA”.

As for `CCO` [Ethanol], at T4 DNA ligase [1], the “Recircularization Enhancement” value is listed as 9-fold. Moreover, the “Cloning Enhancement” value at T4 DNA ligase [2] (enhancer at 12%) is 25-fold. In the case of PEG 400, at T4 DNA ligase [3], the “Effect on blunt-end ligation” value was “little effect on ligation”. Turning to `C[N+](C)(C)CC(=O)O` [Betaine], on T4 DNA ligase [1] (enhancer at 1.3M, no addition = 1-fold, single-base overhangs), the “Recircularization Enhancement” value is recorded as 13-fold. Also, the “Cloning Enhancement” value on T4 DNA ligase [2] (enhancer at 1.3M) is given as 12-fold.

Source of the values: patent US9499811B2, “Ligation enhancement” (New England Biolabs, Inc., priority 2011, dated 2016).
